Assays:
[1] = test system: apo E-KO mice; assay: Plasma triglyceride levels in apo E-KO mice fed experimental diets; type: in vivo; conditions: compounds in diet
[2] = in vivo; cited from earlier work

For `O=C(O)c1cccnc1` [nicotinic acid], the “effect on plasma triglyceride levels” value [1] is given as “reduced triglyceride levels” and the “elevation of the "good" HDL cholesterol” value [2] is given as 20-30%.
